Values of other authors as cited in patent US20210213093A1, “COMPOSITIONS AND METHODS FOR ACTIVATING CELLULAR SIGNALING PATHWAYS” (LifeVantage Corporation, priority 2020, published 2021).

Conditions: background statement, no test described

O=C(O)CCCC[C@@H]1CCSS1 (racemic) [Lipoic acid, lipoic acid]
antioxidant power relative to vitamin E and vitamin C combined: 400 times
